Measurements reported in ChEMBL document CHEMBL3137667, “[Drug-induced liver injury; fourteenth updated edition of the bibliographic database of liver injuries and related drugs]” (Gastroenterol Clin Biol, 2004).

Legend:
[1] = human
[2] = human; remark: listed apart in the source
[3] = human; remark: listed apart in the source
[4] = Highest frequency of acute liver toxicity observed during clinical trials, expressed as a percentage. [column '% AIGUE' in source]; conditions: human
[5] = human; remark: listed apart in the source
[6] = human, serum, 4383 h
[7] = human; remark: listed apart in the source
[8] = human; remark: listed apart in the source
[9] = human; remark: listed apart in the source
[10] = Highest frequency of moderate liver toxicity observed during clinical trials, expressed as a percentage. [column '% BIOL' in source]; conditions: human
[11] = human, serum
[12] = human; remark: listed apart in the source
[13] = human, serum; remark: listed apart in the source
[14] = Times to onset, minimal and maximal, observed in the indexed observations. [column 'DELAI' in source]; conditions: human
[15] = human; remark: listed apart in the source
[16] = human; remark: listed apart in the source
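Throughout, for Hepatotoxicity (association with vascular disease): count of indexed literature references reporting vascular liver injury in humans, e.g. peliosis hepatitis, hepatic veno-occlusive disease or Budd-Chiari syndrome.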
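Throughout, for Hepatotoxicity (benign tumour): value is a count of indexed literature references citing a benign tumour confirmed by histopathology.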
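Throughout, for Hepatotoxicity (choleostasis): human cholestatic liver injury, shown by histopathology or by peak ALT or AST elevation over alkaline phosphatase ratio below 2, value counts indexed literature reports.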
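Throughout, for Hepatotoxicity (chronic liver disease): chronic liver injury confirmed by histopathology or persistently raised serum aminotransferase activity beyond 6 months, value given as the count of indexed literature references.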
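Throughout, for Hepatotoxicity (cirrhosis): value is a count of indexed literature references reporting cirrhosis confirmed by histopathology.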
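Throughout, for Hepatotoxicity (cytolytic): human cytolytic liver injury, shown by histopathology or by a ratio above 5 of peak ALT or AST elevation to alkaline phosphatase elevation, value counts indexed references.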
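Throughout, for Hepatotoxicity (granulomatous hepatitis): value is a count of indexed literature references reporting granulomatous liver disease confirmed by histopathology.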
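Throughout, for Hepatotoxicity (malignant tumour): malignant tumour confirmed by histopathology, value gives the count of indexed literature references reporting it.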
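Throughout, for Hepatotoxicity (severe hepatitis): human clinical data: severe hepatitis, meaning potentially life-threatening liver failure or clinically observed cases, the value counts how many indexed literature references report it.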
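Throughout, for Hepatotoxicity (steatosis): steatosis confirmed by histopathology, value is the count of indexed references.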

## COc1cc(NS(C)(=O)=O)ccc1Nc1c2ccccc2nc2ccccc12 [AMSACRINE]
[1]
  Hepatotoxicity (severe hepatitis): 4
[2]
  Hepatotoxicity (cytolytic): 2
[3]
  Hepatotoxicity (malignant tumour): 0
[4]
  Hepatotoxicity (acute): 0%
[5]
  Hepatotoxicity (association with vascular disease): 0
[6]
  Hepatotoxicity (chronic liver disease): 0
[7]
  Hepatotoxicity (cirrhosis): 0
[8]
  Hepatotoxicity (granulomatous hepatitis): 0
[9]
  Hepatotoxicity (animal toxicity known): yes
[10]
  Hepatotoxicity (moderate): 41%
[11]
  Hepatotoxicity (acute): 2
[12]
  Hepatotoxicity (steatosis): 1
[13]
  Hepatotoxicity (moderate): 10
[14]
  Hepatotoxicity (time to onset): 5 days - 1 month
[15]
  Hepatotoxicity (choleostasis): 0
[16]
  Hepatotoxicity (benign tumour): 0

## CCCC1C(=O)N2C(N(C)C)=Nc3ccc(C)cc3N2C1=O (stereo unspecified) [APAZONE]
[1]
  Hepatotoxicity (severe hepatitis): 0
[2]
  Hepatotoxicity (cytolytic): 0
[3]
  Hepatotoxicity (malignant tumour): 0
[5]
  Hepatotoxicity (association with vascular disease): 0
[6]
  Hepatotoxicity (chronic liver disease): 0
[7]
  Hepatotoxicity (cirrhosis): 0
[8]
  Hepatotoxicity (granulomatous hepatitis): 1
[9]
  Hepatotoxicity (animal toxicity known): yes
[10]
  Hepatotoxicity (moderate): 0%
[12]
  Hepatotoxicity (steatosis): 0
[13]
  Hepatotoxicity (moderate): 1
[14]
  Hepatotoxicity (time to onset): 3 weeks
[15]
  Hepatotoxicity (choleostasis): 1
[16]
  Hepatotoxicity (benign tumour): 0

## Nc1ncn([C@@H]2O[C@H](CO)[C@@H](O)[C@H]2O)c(=O)n1 [AZACITIDINE]
[1]; Liver
  Hepatotoxicity (severe hepatitis): 2
[2]; Liver
  Hepatotoxicity (cytolytic): 1
[3]
  Hepatotoxicity (malignant tumour): 0
[4]; Liver
  Hepatotoxicity (acute): 0%
[5]
  Hepatotoxicity (association with vascular disease): 0
[6]
  Hepatotoxicity (chronic liver disease): 0
[7]
  Hepatotoxicity (cirrhosis): 0
[8]; Liver
  Hepatotoxicity (granulomatous hepatitis): 0
[9]
  Hepatotoxicity (animal toxicity known): yes
[10]; Liver
  Hepatotoxicity (moderate): 62.5%
[11]
  Hepatotoxicity (acute): 1
[12]
  Hepatotoxicity (steatosis): 0
[13]
  Hepatotoxicity (moderate): 5
[14]
  Hepatotoxicity (time to onset): 1 week
[15]; Liver
  Hepatotoxicity (choleostasis): 0
[16]
  Hepatotoxicity (benign tumour): 0

## CCN1CC(CCN2CCOCC2)C(c2ccccc2)(c2ccccc2)C1=O (stereo unspecified) [DOXAPRAM]
[1]
  Hepatotoxicity (severe hepatitis): 0
[2]
  Hepatotoxicity (cytolytic): 1
[3]
  Hepatotoxicity (malignant tumour): 0
[4]
  Hepatotoxicity (acute): 0%
[5]
  Hepatotoxicity (association with vascular disease): 0
[6]
  Hepatotoxicity (chronic liver disease): 0
[7]
  Hepatotoxicity (cirrhosis): 0
[8]
  Hepatotoxicity (granulomatous hepatitis): 0
[9]
  Hepatotoxicity (animal toxicity known): yes
[10]
  Hepatotoxicity (moderate): 0%
[11]
  Hepatotoxicity (acute): 1
[12]
  Hepatotoxicity (steatosis): 1
[13]
  Hepatotoxicity (moderate): 1
[14]
  Hepatotoxicity (time to onset): 1 day - 5 days
[15]
  Hepatotoxicity (choleostasis): 0
[16]
  Hepatotoxicity (benign tumour): 0

## O=c1[nH]c(=O)n([C@@H]2O[C@H](CO)[C@@H](O)[C@@H]2F)cc1I [FIALURIDINE]
[1]
  Hepatotoxicity (severe hepatitis): 3
[2]
  Hepatotoxicity (cytolytic): 0
[3]
  Hepatotoxicity (malignant tumour): 0
[4]
  Hepatotoxicity (acute): 33.3%
[5]
  Hepatotoxicity (association with vascular disease): 0
[6]
  Hepatotoxicity (chronic liver disease): 0
[7]
  Hepatotoxicity (cirrhosis): 0
[8]
  Hepatotoxicity (granulomatous hepatitis): 0
[9]
  Hepatotoxicity (animal toxicity known): yes
[10]
  Hepatotoxicity (moderate): 0%
[11]
  Hepatotoxicity (acute): 1
[12]
  Hepatotoxicity (steatosis): 1
[13]
  Hepatotoxicity (moderate): 0
[14]
  Hepatotoxicity (time to onset): 9.5 weeks - 4 months
[15]
  Hepatotoxicity (choleostasis): 0
[16]
  Hepatotoxicity (benign tumour): 0

## COc1ccc2nc(NC(=O)Nc3ccccc3)sc2c1 [FRENTIZOLE]
[1]
  Hepatotoxicity (severe hepatitis): 1
[2]
  Hepatotoxicity (cytolytic): 2
[3]
  Hepatotoxicity (malignant tumour): 0
[4]
  Hepatotoxicity (acute): 0%
[5]
  Hepatotoxicity (association with vascular disease): 0
[6]
  Hepatotoxicity (chronic liver disease): 1
[7]
  Hepatotoxicity (cirrhosis): 0
[8]
  Hepatotoxicity (granulomatous hepatitis): 0
[9]
  Hepatotoxicity (animal toxicity known): yes
[10]
  Hepatotoxicity (moderate): 70%
[11]
  Hepatotoxicity (acute): 2
[12]
  Hepatotoxicity (steatosis): 0
[13]
  Hepatotoxicity (moderate): 4
[14]
  Hepatotoxicity (time to onset): 1 week - 1 month
[15]
  Hepatotoxicity (choleostasis): 0
[16]
  Hepatotoxicity (benign tumour): 0

## O=C(O)/C=C/C(=O)O [FUMARIC ACID]
[1]
  Hepatotoxicity (severe hepatitis): 0
[2]
  Hepatotoxicity (cytolytic): 0
[3]
  Hepatotoxicity (malignant tumour): 0
[4]
  Hepatotoxicity (acute): 0%
[5]
  Hepatotoxicity (association with vascular disease): 0
[6]
  Hepatotoxicity (chronic liver disease): 0
[7]
  Hepatotoxicity (cirrhosis): 0
[8]
  Hepatotoxicity (granulomatous hepatitis): 0
[9]
  Hepatotoxicity (animal toxicity known): yes
[10]
  Hepatotoxicity (moderate): 59%
[11]
  Hepatotoxicity (acute): 0
[12]
  Hepatotoxicity (steatosis): 0
[13]
  Hepatotoxicity (moderate): 6
[14]
  Hepatotoxicity (time to onset): 2 months
[15]
  Hepatotoxicity (choleostasis): 0
[16]
  Hepatotoxicity (benign tumour): 0

## CCN(CC)CCNc1ccc(CO)c2sc3ccccc3c(=O)c12 [HYCANTHONE]
[1]
  Hepatotoxicity (severe hepatitis): 16
[2]
  Hepatotoxicity (cytolytic): 3
[3]
  Hepatotoxicity (malignant tumour): 0
[4]
  Hepatotoxicity (acute): 0%
[5]
  Hepatotoxicity (association with vascular disease): 0
[6]
  Hepatotoxicity (chronic liver disease): 1
[7]
  Hepatotoxicity (cirrhosis): 0
[8]
  Hepatotoxicity (granulomatous hepatitis): 0
[9]
  Hepatotoxicity (animal toxicity known): yes
[10]
  Hepatotoxicity (moderate): 0%
[11]
  Hepatotoxicity (acute): 7
[12]
  Hepatotoxicity (steatosis): 1
[13]
  Hepatotoxicity (moderate): 1
[14]
  Hepatotoxicity (time to onset): 1 day - 18 days
[15]
  Hepatotoxicity (choleostasis): 1
[16]
  Hepatotoxicity (benign tumour): 0

## Cc1[nH]cnc1CSCCNc1ncc(Cc2ccc3c(c2)OCO3)c(=O)[nH]1 [OXMETIDINE]
[1]
  Hepatotoxicity (severe hepatitis): 0
[2]
  Hepatotoxicity (cytolytic): 0
[3]
  Hepatotoxicity (malignant tumour): 0
[4]
  Hepatotoxicity (acute): 0.1%
[5]
  Hepatotoxicity (association with vascular disease): 0
[6]
  Hepatotoxicity (chronic liver disease): 0
[7]
  Hepatotoxicity (cirrhosis): 0
[8]
  Hepatotoxicity (granulomatous hepatitis): 0
[9]
  Hepatotoxicity (animal toxicity known): yes
[10]
  Hepatotoxicity (moderate): 0%
[11]
  Hepatotoxicity (acute): 1
[12]
  Hepatotoxicity (steatosis): 0
[13]
  Hepatotoxicity (moderate): 1
[15]
  Hepatotoxicity (choleostasis): 0
[16]
  Hepatotoxicity (benign tumour): 0

## CCOC(=O)C1(c2ccccc2)CCN(CCC(O)c2ccccc2)CC1 (stereo unspecified) [PHENOPERIDINE]
[1]
  Hepatotoxicity (severe hepatitis): 0
[2]
  Hepatotoxicity (cytolytic): 0
[3]
  Hepatotoxicity (malignant tumour): 0
[4]
  Hepatotoxicity (acute): 0%
[5]
  Hepatotoxicity (association with vascular disease): 0
[6]
  Hepatotoxicity (chronic liver disease): 0
[7]
  Hepatotoxicity (cirrhosis): 0
[8]
  Hepatotoxicity (granulomatous hepatitis): 0
[9]
  Hepatotoxicity (animal toxicity known): yes
[10]
  Hepatotoxicity (moderate): 0%
[11]
  Hepatotoxicity (acute): 1
[12]
  Hepatotoxicity (steatosis): 0
[13]
  Hepatotoxicity (moderate): 0
[15]
  Hepatotoxicity (choleostasis): 1
[16]
  Hepatotoxicity (benign tumour): 0

## O=C(OC[C@H]1O[C@@H](OC(=O)c2cc(O)c(O)c(OC(=O)c3cc(O)c(O)c(O)c3)c2)[C@H](OC(=O)c2cc(O)c(O)c(OC(=O)c3cc(O)c(O)c(O)c3)c2)[C@@H](OC(=O)c2cc(O)c(O)c(OC(=O)c3cc(O)c(O)c(O)c3)c2)[C@@H]1OC(=O)c1cc(O)c(O)c(OC(=O)c2cc(O)c(O)c(O)c2)c1)c1cc(O)c(O)c(OC(=O)c2cc(O)c(O)c(O)c2)c1 [TANNIC ACID]
[1]
  Hepatotoxicity (severe hepatitis): 8
[2]
  Hepatotoxicity (cytolytic): 13
[3]
  Hepatotoxicity (malignant tumour): 0
[4]
  Hepatotoxicity (acute): 0%
[5]
  Hepatotoxicity (association with vascular disease): 0
[6]
  Hepatotoxicity (chronic liver disease): 0
[7]
  Hepatotoxicity (cirrhosis): 0
[8]
  Hepatotoxicity (granulomatous hepatitis): 0
[9]
  Hepatotoxicity (animal toxicity known): yes
[10]
  Hepatotoxicity (moderate): 0%
[11]
  Hepatotoxicity (acute): 13
[12]
  Hepatotoxicity (steatosis): 0
[13]
  Hepatotoxicity (moderate): 0
[15]
  Hepatotoxicity (choleostasis): 0
[16]
  Hepatotoxicity (benign tumour): 0

## CC[C@]1(O)C[C@@H]2CN(CCc3c([nH]c4ccccc34)[C@@](C(=O)OC)(c3cc4c(cc3OC)N(C)[C@H]3[C@@](O)(C(N)=O)[C@H](O)[C@]5(CC)C=CCN6CC[C@]43[C@@H]65)C2)C1 [VINDESINE]
[1]
  Hepatotoxicity (severe hepatitis): 0
[2]
  Hepatotoxicity (cytolytic): 0
[3]
  Hepatotoxicity (malignant tumour): 0
[4]
  Hepatotoxicity (acute): 0%
[5]
  Hepatotoxicity (association with vascular disease): 0
[6]
  Hepatotoxicity (chronic liver disease): 0
[7]
  Hepatotoxicity (cirrhosis): 0
[8]
  Hepatotoxicity (granulomatous hepatitis): 0
[9]
  Hepatotoxicity (animal toxicity known): yes
[10]
  Hepatotoxicity (moderate): 9.1%
[11]
  Hepatotoxicity (acute): 0
[12]
  Hepatotoxicity (steatosis): 0
[13]
  Hepatotoxicity (moderate): 2
[15]
  Hepatotoxicity (choleostasis): 0
[16]
  Hepatotoxicity (benign tumour): 0

## POVIDONE-IODINE
[1]
  Hepatotoxicity (severe hepatitis): 0
[2]
  Hepatotoxicity (cytolytic): 0
[3]
  Hepatotoxicity (malignant tumour): 0
[4]
  Hepatotoxicity (acute): 0%
[5]
  Hepatotoxicity (association with vascular disease): 0
[6]
  Hepatotoxicity (chronic liver disease): 0
[7]
  Hepatotoxicity (cirrhosis): 0
[8]
  Hepatotoxicity (granulomatous hepatitis): 0
[9]
  Hepatotoxicity (animal toxicity known): yes
[10]
  Hepatotoxicity (moderate): 80%
[11]
  Hepatotoxicity (acute): 2
[12]
  Hepatotoxicity (steatosis): 0
[13]
  Hepatotoxicity (moderate): 2
[15]
  Hepatotoxicity (choleostasis): 0
[16]
  Hepatotoxicity (benign tumour): 0
